ChEMBL document CHEMBL3046328, “Ligand-based pharmacophore detection, screening of potential pharmacophore and docking studies, to get effective glycogen synthase kinase inhibitors” (Med Chem Res, 2013)

Legend:
[1] = molecular target: T1, Glycogen synthase kinase-3 (Homo sapiens, UniProt P49840+P49841); assay: Inhibition of GSK3 (unknown origin) at 1 uM; type: protein assay
Aurora kinase A = molecular target: T2, Aurora kinase A (Homo sapiens, UniProt O14965); assay: Inhibition of Aurora2 (unknown origin)
T2 sequence (O14965 whole entry): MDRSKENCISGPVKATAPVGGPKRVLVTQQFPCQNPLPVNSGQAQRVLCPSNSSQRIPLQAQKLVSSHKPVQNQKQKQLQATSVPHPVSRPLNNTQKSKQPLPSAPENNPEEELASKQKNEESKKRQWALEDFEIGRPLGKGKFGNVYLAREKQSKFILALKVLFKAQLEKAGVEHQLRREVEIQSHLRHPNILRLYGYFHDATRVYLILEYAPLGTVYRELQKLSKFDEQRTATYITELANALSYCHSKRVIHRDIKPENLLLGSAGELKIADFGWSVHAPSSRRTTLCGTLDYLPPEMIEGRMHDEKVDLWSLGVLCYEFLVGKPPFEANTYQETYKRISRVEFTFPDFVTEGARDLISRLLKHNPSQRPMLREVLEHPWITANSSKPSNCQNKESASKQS

[2] = molecular target: Mitogen-activated protein kinase 1 (Homo sapiens, UniProt P28482); assay: Inhibition of ERK2 (unknown origin)
[3] = molecular target: T1, Glycogen synthase kinase-3; assay: Inhibition of GSK3 (unknown origin); type: protein assay
[4] = molecular target: Proto-oncogene tyrosine-protein kinase Src (Homo sapiens, UniProt P12931); assay: Inhibition of SRC (unknown origin)
[5] = molecular target: Glycogen synthase kinase-3 beta (Homo sapiens, UniProt P49841); assay: Inhibition of GSK3beta (unknown origin)
Sequence of Glycogen synthase kinase-3 beta (P49841 whole entry): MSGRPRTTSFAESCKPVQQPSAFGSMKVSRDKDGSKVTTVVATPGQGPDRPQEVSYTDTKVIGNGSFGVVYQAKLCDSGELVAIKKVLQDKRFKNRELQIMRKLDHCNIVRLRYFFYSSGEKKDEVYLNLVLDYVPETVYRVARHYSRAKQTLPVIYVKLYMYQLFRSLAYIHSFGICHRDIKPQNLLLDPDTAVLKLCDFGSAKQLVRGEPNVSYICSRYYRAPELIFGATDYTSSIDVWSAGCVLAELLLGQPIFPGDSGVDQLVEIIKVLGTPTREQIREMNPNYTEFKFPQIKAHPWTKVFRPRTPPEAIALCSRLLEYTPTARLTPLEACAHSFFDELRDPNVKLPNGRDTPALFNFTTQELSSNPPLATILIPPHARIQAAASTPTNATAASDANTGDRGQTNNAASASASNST

Sequence of Mitogen-activated protein kinase 1 (P28482 whole entry): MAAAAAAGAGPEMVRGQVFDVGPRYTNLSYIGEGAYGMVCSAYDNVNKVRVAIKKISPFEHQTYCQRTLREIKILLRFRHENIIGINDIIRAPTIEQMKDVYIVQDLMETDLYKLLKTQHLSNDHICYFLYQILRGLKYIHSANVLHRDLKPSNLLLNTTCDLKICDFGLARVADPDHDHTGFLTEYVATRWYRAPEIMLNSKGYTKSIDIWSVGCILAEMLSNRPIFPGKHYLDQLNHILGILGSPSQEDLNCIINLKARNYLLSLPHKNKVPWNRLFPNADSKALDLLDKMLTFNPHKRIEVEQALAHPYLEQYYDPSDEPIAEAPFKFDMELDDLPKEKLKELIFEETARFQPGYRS
Sequence of Proto-oncogene tyrosine-protein kinase Src (P12931 2-536 limits assumed): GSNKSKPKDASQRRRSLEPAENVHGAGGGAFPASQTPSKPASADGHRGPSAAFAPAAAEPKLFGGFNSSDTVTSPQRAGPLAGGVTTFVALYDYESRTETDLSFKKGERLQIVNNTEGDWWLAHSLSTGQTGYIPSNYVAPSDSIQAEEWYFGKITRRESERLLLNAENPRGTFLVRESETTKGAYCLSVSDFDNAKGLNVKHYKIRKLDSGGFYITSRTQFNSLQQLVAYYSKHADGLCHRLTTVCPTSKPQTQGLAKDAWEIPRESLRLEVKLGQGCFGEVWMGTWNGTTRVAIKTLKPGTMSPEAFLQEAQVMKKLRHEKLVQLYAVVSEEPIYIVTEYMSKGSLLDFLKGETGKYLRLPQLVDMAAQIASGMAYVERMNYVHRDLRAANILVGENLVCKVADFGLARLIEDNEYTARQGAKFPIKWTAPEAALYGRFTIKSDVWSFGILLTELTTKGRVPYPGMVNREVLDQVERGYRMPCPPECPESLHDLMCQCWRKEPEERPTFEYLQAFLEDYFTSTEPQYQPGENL
T1 sequence (P49840 whole entry, looked up): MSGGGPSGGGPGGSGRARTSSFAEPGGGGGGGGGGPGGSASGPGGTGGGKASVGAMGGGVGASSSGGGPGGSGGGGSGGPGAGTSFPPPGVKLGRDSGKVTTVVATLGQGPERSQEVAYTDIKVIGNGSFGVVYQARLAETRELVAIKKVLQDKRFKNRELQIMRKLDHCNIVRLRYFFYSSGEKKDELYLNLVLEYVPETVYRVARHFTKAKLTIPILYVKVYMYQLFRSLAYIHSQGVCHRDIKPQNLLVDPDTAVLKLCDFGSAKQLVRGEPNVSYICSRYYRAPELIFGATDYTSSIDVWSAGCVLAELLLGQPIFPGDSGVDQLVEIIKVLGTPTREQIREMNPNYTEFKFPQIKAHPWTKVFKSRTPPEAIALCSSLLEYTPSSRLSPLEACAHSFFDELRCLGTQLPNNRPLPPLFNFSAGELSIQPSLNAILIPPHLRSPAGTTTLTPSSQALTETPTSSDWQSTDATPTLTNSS
T1 sequence (P49841 whole entry, looked up): as the sequence (P49841 whole entry) above

Structure (SMILES) | Ki [2] [µM] | Ki (Aurora kinase A) [µM] | Ki [3] [µM] | Ki [4] [µM] | IC50 [3] [µM] | other results
CCSc1nc2c([nH]1)[nH]c1ccccc12 |  |  |  |  |  | inhibition [1]: 63%
Cc1ccc(-c2c[nH]c(C3COCCN3Cc3c[nH]c4ccccc34)n2)cc1 (stereo not given) |  |  |  |  |  | IC50 [5]: 0.12 µM
C[n+]1c2ccccc2[n+]2[nH]c3ccccc3n12 |  |  |  |  | 1 | 
O=C(N=c1[nH]c2ccccc2[nH]1)NC[C@H]1CCC[C@@H](CNC(=O)N=c2[nH]c3ccccc3[nH]2)C1 |  |  |  |  | 1 | 

Continued, in another order:

Ki [2] [µM] | Ki (Aurora kinase A) [µM] | Ki [3] [µM] | Ki [4] [µM] | IC50 [3] [µM] | Structure (SMILES) | other results
< 1 |  |  |  |  | O=[N+]([O-])c1ccc2c(c1)[n+]([O-])c1c3ccccc3[nH]c1[n+]2[O-] | IC50 (Aurora kinase A): < 5 µM
1000 | < 100 | < 100 | < 0.1 |  | Cc1cccn2cc(CN(Cc3nc4ccccc4c(=O)[nH]3)C(C)C)nc12 | 
1000 | < 100 | < 100 | < 0.1 |  | Cc1nc[nH]c1[C@H]1c2nc[nH]c2CCN1Cc1nc2ccccc2[nH]1 | 
 |  |  |  | 1 | CCN(CC)CCCNc1nc2ccccc2c2[nH]c3ccc(OC)cc3c12 | 
1000 | < 100 | < 100 | < 0.1 |  | Cc1nc[nH]c1[C@@H]1c2nc[nH]c2CCN1Cc1nc2ccccc2[nH]1 | 
 |  |  |  | < 10 | CCN(Cc1cn2cccc(C)c2n1)Cc1nc2ccccc2c(=O)[nH]1 | 
